Laboratory results reported in patent US11150251B2, “Bi-functional arginine-glycine-aspartic acid (RGD) peptides and methods to promote angiogenesis” (Clemson University Research Foundation, priority 2016, dated 2021).

Tests used:
[1] = tested on: VLA-6 (α6) and αvβ3 integrin subunits; details: cited from earlier work
HUVECs [2] = experiment: HUVEC vascular network formation in 3D multi-signaling alginate hydrogels (integrin-binding peptide + QK peptide); format: cell-based, human; details: 5% (w/w) MMP-responsive QK peptides, preliminary data
Text: To synergize with the α1 peptide, we used the α1 peptide and an MMP-responsive QK peptide (i.e., GPQG↓IAGKLTWQELYQLKYKGI, SEQ ID NO:41) to prepare an alginate-based injectable, multi-signaling hydrogels (FIG. 9). The MMP-responsive QK peptide was selected to introduce cell-dictated local release of angiogenic factors to recapitulate the pro-angiogenic microenvironment in vivo, where matrix bound VEGF is released by MMPs. Alginates was selected because it has been used as a biocompatible, injectable hydrogel-forming material to treat ischemic diseases.
We developed a modular approach to prepare the multi-signaling hydrogels (FIG. 10). Briefly, we have prepared alginates functionalized with α1 peptide (10% (w/w)) as well as alginates functionalized with MMP-responsive QK peptide (10% (w/w)) using click chemistry. We then mixed these two alginates at a ratio 1:1 (w/w) to prepare multi-signaling hydrogels to simultaneously engage αvβ3, VLA-6 integrins and VEGFR2. This modular approach allowed us to rapidly prepare alginates with different peptide functionalization to screen for an optimal formulation to support EC morphogenesis.

VLA-6 and αvβ3 integrin = experiment: Integrin antibody blocking of HUVEC adhesion on alginate surface, anti VLA-6 + anti-integrin αvβ3; format: cell-based, human; details: for decrease in HUVEC adhesion when both VLA-6 and αvβ3 integrin are blocked: 2D peptide-functionalized alginate, both antibodies, 6 hours; for integrin binding concluded from blocking experiments: HUVECs on peptide-functionalized alginates
Protocol: (§1) The integrin antibodies and their combinations (no antibody, anti VLA-6 only, anti-integrin αvβ3 only and anti VLA-6+ anti-integrin αvβ3,) were aliquot into predesigned ratio (final ratios in the mixture: 1:20 for anti VLA-6, 1:100 for anti-integrin αvβ3) with PBS, respectively. The HUVECs were incubated with these antibodies for 15 min, sedimented by low speed centrifugation, suspended in 100 μl of serum-free MEM plus 0.02% BSA and then added into the 1% alginate gel coated wells. The wells were transferred into incubator for 6 hours. After that, unattached cells were rinsed from the wells and the attached cells were then fixed and stained with DAPI for cell number counting and phalloidin for F-actin.

αvβ3 integrin = molecular target: T1, αvβ3 integrin (Homo sapiens, UniProt P05106+P06756); experiment: Integrin antibody blocking of HUVEC adhesion on alginate surface, anti-integrin αvβ3; format: cell-based; details: 2D peptide-functionalized alginate, anti-integrin αvβ3 1:100, 6 hours
T1 construct: endogenous in cells; host or cells: HUVEC
T1 sequence (P06756 31-889 limits assumed): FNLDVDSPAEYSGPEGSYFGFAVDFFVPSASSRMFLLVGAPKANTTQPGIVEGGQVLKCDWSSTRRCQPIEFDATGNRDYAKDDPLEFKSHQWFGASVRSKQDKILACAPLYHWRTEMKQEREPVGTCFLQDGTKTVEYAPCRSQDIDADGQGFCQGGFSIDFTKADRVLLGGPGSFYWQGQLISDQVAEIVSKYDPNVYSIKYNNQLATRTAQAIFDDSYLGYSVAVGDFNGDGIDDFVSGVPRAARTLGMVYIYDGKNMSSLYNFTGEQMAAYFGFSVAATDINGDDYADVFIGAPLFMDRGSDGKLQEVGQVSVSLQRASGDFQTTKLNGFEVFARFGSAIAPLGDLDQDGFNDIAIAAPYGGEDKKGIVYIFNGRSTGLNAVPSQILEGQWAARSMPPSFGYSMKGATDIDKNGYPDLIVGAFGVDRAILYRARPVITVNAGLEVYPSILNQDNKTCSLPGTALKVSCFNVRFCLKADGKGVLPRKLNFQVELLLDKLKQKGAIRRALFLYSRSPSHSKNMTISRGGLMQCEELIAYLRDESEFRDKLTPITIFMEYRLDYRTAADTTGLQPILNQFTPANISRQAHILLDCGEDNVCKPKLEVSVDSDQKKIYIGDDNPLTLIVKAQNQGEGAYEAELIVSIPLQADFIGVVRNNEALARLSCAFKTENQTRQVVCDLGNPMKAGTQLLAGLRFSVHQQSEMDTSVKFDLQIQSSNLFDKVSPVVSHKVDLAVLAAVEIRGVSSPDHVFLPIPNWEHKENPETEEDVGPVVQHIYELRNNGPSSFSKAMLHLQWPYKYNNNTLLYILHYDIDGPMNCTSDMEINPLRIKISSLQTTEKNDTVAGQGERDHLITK
T1 sequence (P06756 891-1048 partner limits assumed): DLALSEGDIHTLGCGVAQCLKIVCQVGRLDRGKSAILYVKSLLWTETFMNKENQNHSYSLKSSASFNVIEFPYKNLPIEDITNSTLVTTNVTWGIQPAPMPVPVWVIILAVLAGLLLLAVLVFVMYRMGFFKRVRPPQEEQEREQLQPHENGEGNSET
T1 sequence (P05106 27-788): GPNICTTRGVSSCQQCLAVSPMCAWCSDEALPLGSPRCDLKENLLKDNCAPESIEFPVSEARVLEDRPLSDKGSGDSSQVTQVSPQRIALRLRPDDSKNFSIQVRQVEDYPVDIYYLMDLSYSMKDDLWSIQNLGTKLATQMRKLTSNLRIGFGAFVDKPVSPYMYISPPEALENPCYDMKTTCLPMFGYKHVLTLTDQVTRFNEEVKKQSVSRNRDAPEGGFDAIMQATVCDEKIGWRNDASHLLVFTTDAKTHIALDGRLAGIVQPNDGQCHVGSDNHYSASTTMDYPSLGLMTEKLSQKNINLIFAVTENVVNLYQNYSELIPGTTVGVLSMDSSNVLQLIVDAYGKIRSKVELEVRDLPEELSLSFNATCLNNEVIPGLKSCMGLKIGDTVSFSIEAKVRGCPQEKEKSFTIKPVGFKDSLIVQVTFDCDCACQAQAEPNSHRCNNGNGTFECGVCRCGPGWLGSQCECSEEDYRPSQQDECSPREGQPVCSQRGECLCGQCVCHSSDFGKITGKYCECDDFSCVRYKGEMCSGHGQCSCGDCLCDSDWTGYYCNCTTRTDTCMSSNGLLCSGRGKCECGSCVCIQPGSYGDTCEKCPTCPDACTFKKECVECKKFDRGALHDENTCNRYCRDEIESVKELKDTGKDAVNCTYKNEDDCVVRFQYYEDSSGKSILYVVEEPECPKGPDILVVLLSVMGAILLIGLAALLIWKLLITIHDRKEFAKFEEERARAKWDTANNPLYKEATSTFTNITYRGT
Protocol: as §1

VLA-6 integrin = molecular target: T2, VLA-6 integrin (Homo sapiens, UniProt P05556+P23229); experiment: Integrin antibody blocking of HUVEC adhesion on alginate surface, anti VLA-6; format: cell-based; details: 2D peptide-functionalized alginate, anti VLA-6 1:20, 6 hours
T2 construct: endogenous in cells; host or cells: HUVEC
T2 sequence (P23229 24-938 limits assumed): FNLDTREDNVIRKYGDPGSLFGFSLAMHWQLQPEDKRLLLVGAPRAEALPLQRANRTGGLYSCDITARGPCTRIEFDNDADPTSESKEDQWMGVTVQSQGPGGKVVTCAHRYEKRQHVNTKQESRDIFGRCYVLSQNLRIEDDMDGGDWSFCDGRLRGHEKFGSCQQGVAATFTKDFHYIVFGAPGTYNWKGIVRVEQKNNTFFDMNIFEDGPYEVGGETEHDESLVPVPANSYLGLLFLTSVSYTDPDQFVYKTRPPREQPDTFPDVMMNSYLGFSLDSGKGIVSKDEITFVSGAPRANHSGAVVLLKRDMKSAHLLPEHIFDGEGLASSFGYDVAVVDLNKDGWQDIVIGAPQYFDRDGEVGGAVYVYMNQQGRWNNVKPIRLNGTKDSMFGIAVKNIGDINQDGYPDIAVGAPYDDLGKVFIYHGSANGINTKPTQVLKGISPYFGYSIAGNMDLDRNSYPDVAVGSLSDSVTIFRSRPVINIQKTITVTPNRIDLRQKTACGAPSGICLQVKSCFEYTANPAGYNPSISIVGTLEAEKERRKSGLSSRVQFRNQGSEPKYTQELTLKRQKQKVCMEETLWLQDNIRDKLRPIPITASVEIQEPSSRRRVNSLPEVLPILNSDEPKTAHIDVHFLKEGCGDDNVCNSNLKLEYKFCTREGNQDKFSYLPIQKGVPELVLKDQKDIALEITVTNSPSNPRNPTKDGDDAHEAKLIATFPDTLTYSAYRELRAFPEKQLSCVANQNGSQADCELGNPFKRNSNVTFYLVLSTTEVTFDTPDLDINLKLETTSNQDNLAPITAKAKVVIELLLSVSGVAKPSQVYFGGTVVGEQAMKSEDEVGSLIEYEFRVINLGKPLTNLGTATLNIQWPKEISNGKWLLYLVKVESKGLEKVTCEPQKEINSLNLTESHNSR
T2 sequence (P23229 942-1130 partner limits assumed): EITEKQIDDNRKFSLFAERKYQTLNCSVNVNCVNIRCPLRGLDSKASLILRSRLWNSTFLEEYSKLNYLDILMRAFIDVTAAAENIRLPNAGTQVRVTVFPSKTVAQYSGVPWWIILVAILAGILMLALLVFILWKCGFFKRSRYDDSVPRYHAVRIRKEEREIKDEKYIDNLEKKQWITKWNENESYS
T2 sequence (P05556 21-798): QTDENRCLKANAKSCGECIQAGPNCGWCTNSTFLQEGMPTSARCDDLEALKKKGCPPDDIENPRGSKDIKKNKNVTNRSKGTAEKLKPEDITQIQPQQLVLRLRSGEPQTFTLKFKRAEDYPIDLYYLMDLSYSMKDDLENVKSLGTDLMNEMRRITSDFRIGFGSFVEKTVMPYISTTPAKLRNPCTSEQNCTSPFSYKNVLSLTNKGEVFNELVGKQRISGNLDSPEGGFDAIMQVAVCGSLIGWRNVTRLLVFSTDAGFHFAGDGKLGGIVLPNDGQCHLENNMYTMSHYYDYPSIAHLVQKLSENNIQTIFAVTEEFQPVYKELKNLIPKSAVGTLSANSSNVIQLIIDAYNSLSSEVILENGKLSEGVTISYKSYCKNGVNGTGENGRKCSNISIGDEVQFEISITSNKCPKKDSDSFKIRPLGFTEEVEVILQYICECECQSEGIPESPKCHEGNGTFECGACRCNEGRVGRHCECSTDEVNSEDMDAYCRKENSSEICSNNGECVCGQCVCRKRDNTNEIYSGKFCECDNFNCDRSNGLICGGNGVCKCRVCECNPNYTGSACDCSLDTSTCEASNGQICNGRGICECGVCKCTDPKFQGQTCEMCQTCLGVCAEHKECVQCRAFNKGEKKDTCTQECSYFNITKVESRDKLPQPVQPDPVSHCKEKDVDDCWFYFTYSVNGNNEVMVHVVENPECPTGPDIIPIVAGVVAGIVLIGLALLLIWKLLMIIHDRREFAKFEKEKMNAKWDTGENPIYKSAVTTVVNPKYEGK
Protocol: as §1

HUVECs [3] = experiment: HUVEC culture in 3D peptide-functionalized alginate hydrogels (spreading, proliferation, network formation); format: cell-based, human; details: 1% alginate, 10% (w/w) peptide, 6 million HUVECs/ml, 2 days culture
Protocol: The Ca2+ containing substrates for alginate crosslinking was prepared as the previous literature mentioned. Alginate modified with these peptides (RGDS (SEQ ID NO:35), RGDSP (SEQ ID NO:33) and α1-peptide, respectively) was dissolved into HUVECs culturing media to prepare 1% alginate solution. […] mixture of the alginate and HUVECs was transferred into each well in 96 well plates (3 replicates for each peptide). The alginate was left gelling for 40 min. Then the well plates were transferred into incubator for 10 min to melt the Ca2+ containing substrates. After Ca2+ containing substrates get removed, HUVEC culturing media was added into each well and continue culture for additional two days. Media were changed every day. The cells were then fixed and stained with DAPI for cell number counting and phalloidin for F-actin to estimate cell spreading at day 0 and day 2. The fluorescent pictures were taken by a Leica TCS SP5 AOBS confocal microscope system. The total tubule length and the proliferation rates were measured.

HUVECs (EC integrin) = experiment: HUVEC adhesion on RGD peptide-functionalized PEG hydrogel microarray; format: cell-based, human; details: for affinity to HUVECs / HUVEC adhesion on PEG hydrogel microarray: 12 hours culture
Protocol: Methacrylated peptides (shown in FIG. 7) were dissolved in DMF at pre-designated ratios (1 mM, 3 mM, 6 mM, 9 mM, 12 mM, 15 mM and 20 mM) and mixed with PEGDA (containing 1% DMPA as initiator) (DMF solution of methacrylated peptide: PEGDA=1:1 (v/v)) and then transferred into a 384 well plate for microarray fabrication. The microarrays were printed in a humid Ar-atmosphere on epoxy monolayer-coated glass slides (Xenopore XENOSLIDE E, Hawthorne, N.J.) which were first dip-coated in 4 v/v % poly(hydroxyethyl methacrylate) (i.e., poly(HEMA)) using a customized microarrayer (Biodot). Spots were polymerized via 10 s exposure to long wave UV (365 nm), dried at <50 mtorr for at least 7 days. Before use, the chips were sterilized by UV for 30 min for each side, and then washed with PBS twice for 15 min to remove residual monomer or solvent. HUVECs (human umbilical vein endothelial cells from Lonza, Basel, Switzerland) were seeded onto the array and cultured for 12 hours. They were then fixed and stained with DAPI for cell number counting and phalloidin for F-actin to estimate cell spreading for the lead peptide identification.

KDR (VEGFR2) = experiment: RT-PCR of VEGFR2 mRNA in HUVECs in 3D peptide-modified alginate gel; format: cell-based, human; details: HUVECs in 3D peptide-functionalized alginate hydrogels, 6 hours culture
Protocol: Before PCR experiments, HUVECs were seeded in three different peptides (RGDS (SEQ ID NO:35), RGDSP (SEQ ID NO:33) and α1-peptide, respectively) modified 1% alginate gel. The cells were cultured for 6 hrs and then harvest for RNA isolation. Total RNA was isolated according to the kit and protocol of an RNeasy Micro Kit (Qiagen, Vinlo, Netherlands) with the addition of the QIAShredder (Qiagen) during the homogenization step for HUVECs. For each group, around 0.1 million cells were used for RNA isolation. At least 25 ng of total RNA for each group was used for cDNA synthesis by the Bio-Rad (Hercules, USA) iScript cDNA synthesis kit. qRT-PCR was executed with “best coverage” validated Taqman primers (Life Technologies, Carlsbad, USA) in 10 μl reactions for the following genes: KDR (VEGFR2), ACTB, GAPDH. qRT-PCR Data was normalized as the change in cycle threshold (dCt) from the geometric mean of ACTB and GAPDH expression. Expression was analyzed using mRNA expression=2^(−(dCt)) and then normalized to the gene expression from RGDS (SEQ ID NO:35) samples.

HUVECs [4] = experiment: HUVEC adhesion on 2D surface of peptide-modified alginate hydrogel; format: cell-based, human; details: 10% (w/w) peptide, 1% alginate, versus RGDS
Protocol: The peptides were conjugated onto the oxidized alginate by the EDC-NHS chemistry as reported by Rowley: using aqueous carbodiimide reacted with peptides (RGDS (SEQ ID NO:35), RGDSP (SEQ ID NO:33) and α1-peptide) onto the oxidized alginate. In order to secure sufficient cell attachment, 10% (w/w) peptide modification was performed into the alginate hydrogel.
The Ca2+ containing substrates for alginate crosslinking was prepared according to the literature. 50 μl, 1% alginate modified with peptides (RGDS (SEQ ID NO:35), RGDSP (SEQ ID NO:33) and α1-peptide, respectively) aqueous solution was transferred into each well in 96 well plates (3 replicates for each peptide). The alginate was left gelling for 40 min. Then the well plates were transferred into incubator for 10 min to melt the Ca2+ containing substrates. After Ca2+ containing substrates get removed, HUVECs were seeded onto the hydrogel layers and cultured for 12 hours. Then they were fixed and stained with DAPI for cell number counting and phalloidin for F-actin to estimate cell spreading.

Substance | integrin binding concluded from blocking experiments (VLA-6 and αvβ3 integrin) | decrease in HUVEC adhesion when both VLA-6 and αvβ3 integrin are blocked (VLA-6 and αvβ3 integrin) | decrease in HUVEC adhesion when VLA-6 integrin is blocked (VLA-6 integrin) | HUVEC spreading, proliferation and network formation in 3D alginate hydrogel (HUVECs [3]) | affinity to HUVECs / HUVEC adhesion on PEG hydrogel microarray (HUVECs (EC integrin)) | mRNA expression of VEGFR2 (KDR (VEGFR2)) | also measured
CQAGTFALRGDNPQG [A99, similar Ln derived peptide] | – | – | – | – | – | – | integrin binding reported for A99 [1]: bind to both VLA-6 (α6) and αvβ3 integrin subunits
GPQG↓IAGKLTWQELYQLKYKGI (GPQGIAGKLTWQELYQLKYKGI) [MMP-responsive QK peptides, QK peptide with MMP degradable linkage] | – | – | – | – | – | – | EC vascular network formation at given QK peptide content (HUVECs [2]): sufficient to promote EC vascular network formation
RGDS [RGD peptide derived from Fn] | bind to αvβ3 integrin | ~35% | does not significantly affect cell adhesion | limited cell spreading and no visible network formation | – | – | decrease in HUVEC adhesion when αvβ3 integrin is blocked (αvβ3 integrin): ~35%

Continued, in another order:

integrin binding concluded from blocking experiments (VLA-6 and αvβ3 integrin) | Substance | decrease in HUVEC adhesion when both VLA-6 and αvβ3 integrin are blocked (VLA-6 and αvβ3 integrin) | decrease in HUVEC adhesion when VLA-6 integrin is blocked (VLA-6 integrin) | HUVEC spreading, proliferation and network formation in 3D alginate hydrogel (HUVECs [3]) | affinity to HUVECs / HUVEC adhesion on PEG hydrogel microarray (HUVECs (EC integrin)) | mRNA expression of VEGFR2 (KDR (VEGFR2)) | also measured
bind to αvβ3 integrin | RGDSP [RGD peptide derived from Fn] | – | does not significantly affect cell adhesion | limited cell spreading and no visible network formation | significantly higher affinity to HUVECs than RGDS | significant higher amount of VEGFR2 mRNA expression | –
binds to both VLA-6 and αvβ3 integrin | TFALRGDNP [α1 peptide, RGD peptide derived from Ln α1 subunit] | ~70% | – | significantly enhanced cell proliferation and network formation | highest activities to promote HUVEC adhesion | significantly up-regulated | number of HUVECs attached to 2D surface of alginate hydrogel, higher than RGDS (HUVECs [4]): ~150%; saturated number of attached HUVECs, higher than RGDS (HUVECs (EC integrin); PEG hydrogel microarray, versus RGDS): ~500%; saturated number of attached HUVECs, higher than RGDSP (HUVECs (EC integrin); PEG hydrogel microarray, versus RGDSP): ~200%
